Assay results taken from publication PMC5303205, “Comparative studies on the multi-component pharmacokinetics of Aristolochiae Fructus and honey-fried Aristolochiae Fructus extracts after oral administration in rats” (BMC Complementary and Alternative Medicine, 2017).
Where two headings read alike, the source gives them in different places.

Legend:
[1] = Multi-component pharmacokinetics of AAs in rats after oral administration of AF and HAF extracts (HPLC-MS/MS of plasma); parameters: species or system Sprague–Dawley (SD) rats; conditions: Sprague-Dawley, rat, in vivo
Description: An aliquot (100 μl) of rat plasma was spiked with 10.0 μL IS, and vortexed with 300 μL acetic ether for 10 s before the supernatant was transferred into centrifuge tube. The extraction was repeated with 200 μL acetic ether. The combined organic layer was evaporated to dryness under a gentle stream of nitrogen at RT. The residue was resolved in 100 μL methanol and centrifuged at 15,800 × g for 10 min. The supernatant was used for HPLC-MS/MS analysis.
Chromatographic separation was performed by an Acquity C18 column (4.6 × 100 mm,3.5 μm) (Agilent Technologies, USA). The mobile phase was composed of water (containing 10 mM ammonium formate and formic acid, pH 3.0) (solvent A) and ACN (solvent B). The gradient profile of B was: 0–10 min, 35–38%; 10–11 min, 38– 60%; 11–17 min, 60–35%B; 17–18 min, 35%. The flow rate was kept at 0.5 mL/min. The column oven was set at 30 °C and the injection volume was 10 μL.
The mass spectrometer was operated in the positive ion electrospray mode with multiple reaction monitoring (MRM). The optimal MS parameters were set at the following parameters: a desolvation gas temperature of 450 °C, desolvation gas flow of 10 L/min, a nebulizer gas of 40 psi and a capillary voltage of 4000 V. The mass spectrometry conditions of AA I, AA II, AA C, AA D, 7-OH AA I and IS are summarized in Additional file 1: Table S1.
The rats were randomly divided into 6 groups (low, middle and high doses of AF and HAF; n = 6). After a week of acclimation, the animals were fasted for 12 h with free access to water. Then, AF and HAF extracts were administered to the rats. The extracts were suspended in 0.5% CMC–Na solution, and the oral doses (according to AA I in the extracts) were 3.0 mg/kg, 8.0 mg/kg and 15.0 mg/kg, respectively.
Blood samples were collected from the ocular vein using dried heparinized tubes at 0, 0.083, 0.17, 0.33, 0.50, 0.67, 0.83, 1, 2, 4, 6, 8, 10, 12 and 24 h from the start. The animals received fluid replacement (sterile isotonic saline) after every two samplings since the fifth collecting. The samples were then immediately centrifuged at 3100 × g for 10 min. The plasma obtained was frozen and stored at –20 °C until analysis.
All statistical analyses were performed using the SPSS 11.0 software (Chicago, USA). P values <0.05 were considered statistically significant. Pharmacokinetic analysis was performed using the proprietary DAS 3.0 software (Mathematical Pharmacology Professional Committee of China, Shanghai, China).
After the oral administration of AF and HAF extracts, rat plasma samples were prepared and analyzed as described above. Five main AAs can be detected in rat blood with the proposed HPLC-MS/MS method. The mean pharmacokinetic parameters of five AAs in AF and HAF are summarized in Tables 4, 5 and Additional files 5, 6, 7: Tables S4-S6. The maximum concentration (C max) was the experimentally-observed value. The other pharmacokinetic parameters of the five analytes were fitted by DAS 3.0 software.

[2] = Stability of AAs in rat plasma (QC samples, HPLC-MS/MS); format: in vitro ADME; conditions: n = 5; for Short-term stability (RSD/%): fresh rat plasma at room temperature for 24 h before sample preparation; for Post-preparation stability (RSD/%): prepared rat plasma samples at room temperature for 24 h; for Long-term stability (RSD/%): rat plasma stored at –20 °C for 14 days; for Freeze-thaw stability (RSD/%): rat plasma, three freeze-thaw cycles (–20 °C 24 h, thawed at room temperature)
Description: The QC samples were assayed under several different conditions to evaluate the stability of AAs in rat plasma. The freeze-thaw stability of the analyte was determined over three freeze-thaw cycles. In each freeze-thaw cycle, the samples were frozen and stored at –20 °C for 24 h, then thawed at room temperature. To evaluate the long-term stability of AAs, the plasma samples were stored at –20 °C for 14 days. For the short-term stability, fresh plasma samples were kept at room temperature for 24 h before the sample preparation. After keeping the samples at room temperature for 24 h, post-preparation stability was tested. Stability was evaluated by comparing the mean concentration of the stored samples with the mean concentration of those prepared freshly. The stability data were acceptable when the bias was within ±15% of the actual value.

[3] = 3 mg/kg, AF extract, low dose (3.0 mg/kg as AA I), analyte dose mg/kg: AA I 3.0, AA II 0.21, AA C 1.42, AA D 1.60, 7-OH AA I 2.33, n = 6
[4] = 3 mg/kg, HAF extract, low dose (3.0 mg/kg as AA I), analyte dose mg/kg: AA I 3.0, AA II 0.26, AA C 1.53, AA D 1.51, 7-OH AA I 2.48, n = 6
[5] = 8 mg/kg, AF extract, mid dose (8.0 mg/kg as AA I), analyte dose mg/kg: AA I 8.0, AA II 0.56, AA C 3.78, AA D 4.26, 7-OH AA I 6.22, n = 6
[6] = 8 mg/kg, HAF extract, mid dose (8.0 mg/kg as AA I), analyte dose mg/kg: AA I 8.0, AA II 0.69, AA C 4.09, AA D 4.03, 7-OH AA I 6.62, n = 6
[7] = 15 mg/kg, AF extract, high dose (15.0 mg/kg as AA I), analyte dose mg/kg: AA I 15.0, AA II 1.05, AA C 7.09, AA D 8.00, 7-OH AA I 11.66, n = 6
[8] = 15 mg/kg, HAF extract, high dose (15.0 mg/kg as AA I), analyte dose mg/kg: AA I 15.0, AA II 1.29, AA C 7.66, AA D 7.56, 7-OH AA I 12.41, n = 6
[9] = high QC conc ng/mL: AA I 1830, AA II 3200, AA C 2980, AA D 3680, 7-OH AA I 3280
[10] = low QC conc ng/mL: AA I 1.83, AA II 8.00, AA C 186.3, AA D 36.8, 7-OH AA I 82.0
[11] = middle QC conc ng/mL: AA I 457.5, AA II 400, AA C 372.5, AA D 460, 7-OH AA I 410

Compound: COc1c(O)ccc2c1cc([N+](=O)[O-])c1c(C(=O)O)cc3c(c12)OCO3 [7-OH AA I]
- AUC(0-inf) [1, 3]: 0.602 µg·h/mL
- Cmax [1, 3]: 0.214 µg/mL
- Tmax [1, 3]: 0.64 h
- CL/F ([1]; 3 mg/kg, AF extract, low dose (3.0 mg/kg as AA I), analyte dose mg/kg: AA I 3.0, AA II 0.21, AA C 1.42, AA D 1.60, 7-OH AA I 2.33, n = 6, read-out: CLz/F (converted)): 4.29 L/h/kg
- Vd/F ([1]; 3 mg/kg, AF extract, low dose (3.0 mg/kg as AA I), analyte dose mg/kg: AA I 3.0, AA II 0.21, AA C 1.42, AA D 1.60, 7-OH AA I 2.33, n = 6, read-out: Vz/F): 24.7 L/kg
- half-life ([1]; 3 mg/kg, AF extract, low dose (3.0 mg/kg as AA I), analyte dose mg/kg: AA I 3.0, AA II 0.21, AA C 1.42, AA D 1.60, 7-OH AA I 2.33, n = 6, read-out: t 1/2z (converted)): 3.84 h
- AUC(0-inf) [1, 4]: 0.62 µg·h/mL
- Cmax [1, 4]: 0.216 µg/mL
- Tmax [1, 4]: 0.5 h
- CL/F ([1]; 3 mg/kg, HAF extract, low dose (3.0 mg/kg as AA I), analyte dose mg/kg: AA I 3.0, AA II 0.26, AA C 1.53, AA D 1.51, 7-OH AA I 2.48, n = 6, read-out: CLz/F (converted)): 4.88 L/h/kg
- Vd/F ([1]; 3 mg/kg, HAF extract, low dose (3.0 mg/kg as AA I), analyte dose mg/kg: AA I 3.0, AA II 0.26, AA C 1.53, AA D 1.51, 7-OH AA I 2.48, n = 6, read-out: Vz/F): 17.5 L/kg
- half-life ([1]; 3 mg/kg, HAF extract, low dose (3.0 mg/kg as AA I), analyte dose mg/kg: AA I 3.0, AA II 0.26, AA C 1.53, AA D 1.51, 7-OH AA I 2.48, n = 6, read-out: t 1/2z (converted)): 2.75 h
- AUC(0-inf) [1, 5]: 1.16 µg·h/mL
- Cmax [1, 5]: 0.404 µg/mL
- Tmax [1, 5]: 0.72 h
- CL/F ([1]; 8 mg/kg, AF extract, mid dose (8.0 mg/kg as AA I), analyte dose mg/kg: AA I 8.0, AA II 0.56, AA C 3.78, AA D 4.26, 7-OH AA I 6.22, n = 6, read-out: CLz/F (converted)): 5.55 L/h/kg
- Vd/F ([1]; 8 mg/kg, AF extract, mid dose (8.0 mg/kg as AA I), analyte dose mg/kg: AA I 8.0, AA II 0.56, AA C 3.78, AA D 4.26, 7-OH AA I 6.22, n = 6, read-out: Vz/F): 26.1 L/kg
- half-life ([1]; 8 mg/kg, AF extract, mid dose (8.0 mg/kg as AA I), analyte dose mg/kg: AA I 8.0, AA II 0.56, AA C 3.78, AA D 4.26, 7-OH AA I 6.22, n = 6, read-out: t 1/2z (converted)): 3.25 h
- AUC(0-inf) [1, 6]: 0.991 µg·h/mL
- Cmax [1, 6]: 0.366 µg/mL
- Tmax [1, 6]: 0.67 h
- CL/F ([1]; 8 mg/kg, HAF extract, mid dose (8.0 mg/kg as AA I), analyte dose mg/kg: AA I 8.0, AA II 0.69, AA C 4.09, AA D 4.03, 7-OH AA I 6.62, n = 6, read-out: CLz/F (converted)): 6.55 L/h/kg
- Vd/F ([1]; 8 mg/kg, HAF extract, mid dose (8.0 mg/kg as AA I), analyte dose mg/kg: AA I 8.0, AA II 0.69, AA C 4.09, AA D 4.03, 7-OH AA I 6.62, n = 6, read-out: Vz/F): 25.4 L/kg
- half-life ([1]; 8 mg/kg, HAF extract, mid dose (8.0 mg/kg as AA I), analyte dose mg/kg: AA I 8.0, AA II 0.69, AA C 4.09, AA D 4.03, 7-OH AA I 6.62, n = 6, read-out: t 1/2z (converted)): 2.55 h
- AUC(0-inf) [1, 7]: 1.32 µg·h/mL
- Cmax [1, 7]: 0.566 µg/mL
- Tmax [1, 7]: 0.5 h
- CL/F ([1]; 15 mg/kg, AF extract, high dose (15.0 mg/kg as AA I), analyte dose mg/kg: AA I 15.0, AA II 1.05, AA C 7.09, AA D 8.00, 7-OH AA I 11.66, n = 6, read-out: CLz/F (converted)): 10.4 L/h/kg
- Vd/F ([1]; 15 mg/kg, AF extract, high dose (15.0 mg/kg as AA I), analyte dose mg/kg: AA I 15.0, AA II 1.05, AA C 7.09, AA D 8.00, 7-OH AA I 11.66, n = 6, read-out: Vz/F): 52.3 L/kg
- half-life ([1]; 15 mg/kg, AF extract, high dose (15.0 mg/kg as AA I), analyte dose mg/kg: AA I 15.0, AA II 1.05, AA C 7.09, AA D 8.00, 7-OH AA I 11.66, n = 6, read-out: t 1/2z (converted)): 3.45 h
- AUC(0-inf) [1, 8]: 1.13 µg·h/mL
- Cmax [1, 8]: 0.531 µg/mL
- Tmax [1, 8]: 0.53 h
- CL/F ([1]; 15 mg/kg, HAF extract, high dose (15.0 mg/kg as AA I), analyte dose mg/kg: AA I 15.0, AA II 1.29, AA C 7.66, AA D 7.56, 7-OH AA I 12.41, n = 6, read-out: CLz/F (converted)): 12.4 L/h/kg
- Vd/F ([1]; 15 mg/kg, HAF extract, high dose (15.0 mg/kg as AA I), analyte dose mg/kg: AA I 15.0, AA II 1.29, AA C 7.66, AA D 7.56, 7-OH AA I 12.41, n = 6, read-out: Vz/F): 47.4 L/kg
- half-life ([1]; 15 mg/kg, HAF extract, high dose (15.0 mg/kg as AA I), analyte dose mg/kg: AA I 15.0, AA II 1.29, AA C 7.66, AA D 7.56, 7-OH AA I 12.41, n = 6, read-out: t 1/2z (converted)): 2.94 h
- Short-term stability (RSD/%) [2, 9]: 9.1%
- Short-term stability (RSD/%) [2, 10]: 7.1%
- Short-term stability (RSD/%) [2, 11]: 11.8%
- Post-preparation stability (RSD/%) [2, 9]: 6.7%
- Post-preparation stability (RSD/%) [2, 10]: 5.1%
- Post-preparation stability (RSD/%) [2, 11]: 4.2%
- Long-term stability (RSD/%) [2, 9]: 11.1%
- Long-term stability (RSD/%) [2, 10]: 2.0%
- Long-term stability (RSD/%) [2, 11]: 6.4%
- Freeze-thaw stability (RSD/%) [2, 9]: 13.4%
- Freeze-thaw stability (RSD/%) [2, 10]: 6.2%
- Freeze-thaw stability (RSD/%) [2, 11]: 12.3%
